Data reported in patent US4250255A, “Assay method for isoenzyme activity” (Eastman Kodak Company, priority 1977, dated 1981).
Read-outs that look alike come from different tables or passages of the source.

Legend:
[1] = target: T1, LDH isoenzymes (LD5 in the presence of LD1) (Oryctolagus cuniculus, UniProt P13491); experiment: Anionic amphiphiles tested for specific interaction with LDH isoenzymes (Table 2); type: biochemical
T1 construct: LD1 (LDHB tetramer) only as comparison
Description: (§1) The assay for LDH activity in both the absence and presence of surfactant was conducted as follows. […] The resulting solution contains approximately 5 units/ml. […] To the equilibrated solution […]. of the enzyme solution was added, and the cuvette was rapidly shaken while covering the top of the cuvette with a small piece of Parafilm® and placed back into the spectrophotometer.
(§2) Amphiphile solutions were prepared by weighing out a given amount of amphiphile, e.g., 100 mg, and preparing a stock solution in 30 mM sodium phosphate buffer in 100 ml. volumetric flask. Solutions of lower amphiphile concentration were prepared by making the appropriate dilutions from the stock solution.
A number of anionic amphiphiles were investigated for specific inactivation of LD5 in the presence of LD1 and these compounds are listed in Table 2.

human LD1 = target: T2, human LD1 (Homo sapiens, UniProt P07195); experiment: LDH assay with human enzyme-containing serum; type: biochemical; conditions: 0.1 M DSS; pH 7.8; 14% protein
T2 construct: A specific human LDH isoenzyme (obtained from liver homogenate or red blood cell); from tissue; host or cells: human liver homogenate or red blood cell
Description: as §1
(§3) Pooled human serum, kept frozen until ready for use, was raised to pH 11.5 until all LDH activity was destroyed. The pH was then adjusted to 7.4 and the serum was again assayed for LDH activity to ensure that no LDH had been reactivated. A specific human LDH isoenzyme (obtained from liver homogenate or red blood cell) was then added to the pool to give an enzyme concentration of ~100 U/l. The spiked serum samples were refrigerated between uses and respiked when necessary. Fresh serum was prepared weekly.
(§4) 8. The assay method used is the same as described above for Examples 1-12, except that the test samples consisted of 25-30 μl of serum instead of 100 μl of aqueous enzyme solution.

human LD2 = target: T3, human LD2 (Homo sapiens, UniProt P00338+P07195); experiment: LDH assay with human enzyme-containing serum; type: biochemical; conditions: 0.1 M DSS; pH 7.8; 14% protein
T3 construct: A specific human LDH isoenzyme (obtained from liver homogenate or red blood cell); from tissue; host or cells: human liver homogenate or red blood cell
Description: as §1, §3, §4

human LD3 = target: T4, human LD3 (Homo sapiens, UniProt P00338+P07195); experiment: LDH assay with human enzyme-containing serum; type: biochemical; conditions: 0.1 M DSS; pH 7.8; 14% protein
T4 construct: A specific human LDH isoenzyme (obtained from liver homogenate or red blood cell); from tissue; host or cells: human liver homogenate or red blood cell
Description: as §1, §3, §4

human LD4 = target: T5, human LD4 (Homo sapiens, UniProt P00338+P07195); experiment: LDH assay with human enzyme-containing serum; type: biochemical; conditions: 0.1 M DSS; pH 7.8; 14% protein
T5 construct: A specific human LDH isoenzyme (obtained from liver homogenate or red blood cell); from tissue; host or cells: human liver homogenate or red blood cell
Description: as §1, §3, §4

human LD5 = target: T6, human LD5 (Homo sapiens, UniProt P00338); experiment: LDH assay with human enzyme-containing serum; type: biochemical; conditions: 0.1 M DSS; pH 7.8; 14% protein
T6 construct: A specific human LDH isoenzyme (obtained from liver homogenate or red blood cell); from tissue; host or cells: human liver homogenate or red blood cell
Description: as §1, §3, §4

LD1 = LD1 (Sus scrofa, UniProt P00336); experiment: LDH activity assay with amphiphile, LDH isoenzymes; type: biochemical, porcine; design: porcine LDH, LD1, LD2, LD3, LD4 and LD5 in the form of ammonium sulfate suspensions
Description: 3. Beef heart LDH (Sigma Chemical Co., Type III), rabbit muscle LDH (Sigma Chemical Co., Type V) and porcine LDH, LD1, LD2, LD3, LD4 and LD5 in the form of ammonium sulfate suspensions were used for these examples.
as §1, §2

Which results are given for `CCCCCCCCCCOS(=O)(=O)[O-].[Na+]` [DSS, sodium decylsulfate]?
Interaction (specific inactivation of LD5 in the presence of LD1) [1]: useful positive results; Interaction (specific inactivation of LD5 in the presence of LD1) ([1]; listed as sodium decylsulfate): specific; human LD1 activity (human LD1): fully active; human LD2 activity (human LD2): completely deactivated; human LD3 activity (human LD3): completely deactivated; human LD4 activity (human LD4): completely deactivated; human LD5 activity (human LD5): completely deactivated; LD1 activity in amphiphile solution compared with buffer (LD1; 9 mM DSS in 30 mM phosphate buffer, pH 7.4, FIG. 10): less than control LD1 activity in buffer; isoenzyme activity beyond 9 mM amphiphile (LD1; DSS beyond 9 mM, FIG. 8): only LD1 continues to show activity; remaining activity at 7000 µM (LD1; pH 7.4, read-out: LD1 activity remaining relative to buffer): ~65%
